Results taken from ChEMBL document CHEMBL1201862, “PubChem BioAssay data set” (2004).
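Where inhibition never reached the appropriate level, the endpoint shown equals the highest concentration tested. Otherwise, values were interpolated linearly from a five-concentration, 48-hour dose response in 96-well plates. Here, GI50 denotes the concentration required for 50% inhibition of growth.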 The source made the active and inactive calls. Rule as the data show it: active = GI50 up to about 1.1 µM and inactive = higher.

Assays:
Experiment in all cases: NCI tumour cell line growth inhibition, 48 h
Hs-578T = test system: Hs-578T
MCF7 = test system: MCF7
MDA-N = test system: MDA-N
PC-3 = test system: PC-3
T47D = test system: T47D
M19-MEL = test system: M19-MEL
DLD-1 = test system: DLD-1
RXF 631 = test system: RXF 631
XF498 = test system: XF498

Structure (SMILES)	GI50 (Hs-578T)	GI50 (MCF7)	GI50 (MDA-N)	GI50 (PC-3)	GI50 (T47D)	GI50 (M19-MEL)	GI50 (DLD-1)	GI50 (RXF 631)	GI50 (XF498)
Cc1cc(=O)oc2cc(OS(C)(=O)=O)ccc12	> 100 µM (inactive)	> 100 µM (inactive)	> 100 µM (inactive)	> 100 µM (inactive)	> 100 µM (inactive)	–	–	–	–
COc1ccc(C(=O)NNC(=O)c2nsc3ccccc23)cc1	–	–	–	–	–	> 100 µM (inactive)	–	–	–
CCOC(=O)C1CCn2c(nc3c2c(=O)n(C)c(=O)n3C)S1 (stereo not given)	–	–	–	–	–	–	> 100 µM (inactive)	–	–
CCC(=O)NC(Nc1cccc(F)c1)(C(F)(F)F)C(F)(F)F	98.6 µM (inactive)	> 100 µM (inactive)	> 100 µM (inactive)	> 100 µM (inactive)	> 100 µM (inactive)	–	–	–	–
O=C(NN1C(=O)CSC1c1cccc(F)c1)c1ccncc1 (stereo not given)	–	–	–	–	–	–	–	> 100 µM (inactive)	> 100 µM (inactive)
C[C@H]1S[C@@H](c2ccc(Cl)cc2Cl)N(NC(=O)c2ccncc2)C1=O	94.2 µM (inactive)	45 µM (inactive)	> 10 µM (inactive)	33 µM (inactive)	33 µM (inactive)	–	–	–	–
Nc1ccccc1C(=O)N/N=C1\C(=O)Nc2ccccc21	37.7 µM (inactive)	> 100 µM (inactive)	> 100 µM (inactive)	> 100 µM (inactive)	> 100 µM (inactive)	–	–	–	–
Cc1cc(=O)c2c([nH]1)NS(=O)(=O)NC2=O	–	–	–	–	–	> 100 µM (inactive)	> 100 µM (inactive)	> 100 µM (inactive)	> 100 µM (inactive)
Cc1n[nH]c(CC#N)n1	–	> 100 µM (inactive)	> 100 µM (inactive)	> 100 µM (inactive)	–	–	–	–	–
Cc1ccc(/N=N/C(C(=O)c2ccccc2)C(=O)c2ccccc2)cc1	–	–	–	–	–	16 µM (inactive)	21.9 µM (inactive)	35.8 µM (inactive)	20.1 µM (inactive)
Cc1ccc(OCC2OC(n3cnc4c(Cl)nc(N)nc43)CC2Oc2ccc(C)cc2)cc1 (stereo not given)	39.4 µM (inactive)	2.75 µM (inactive)	7.93 µM (inactive)	35.4 µM (inactive)	20.3 µM (inactive)	–	–	–	–
COC(=O)C(F)C(Br)C(=O)OC (stereo not given)	16.6 µM (inactive)	3.42 µM (inactive)	8.51 µM (inactive)	3.63 µM (inactive)	2.15 µM (inactive)	–	–	–	–
CCOc1ccc2c(C)cc(=O)oc2c1	> 100 µM (inactive)	> 100 µM (inactive)	> 100 µM (inactive)	> 100 µM (inactive)	> 100 µM (inactive)	–	–	–	–
COc1cc(/C=C2\N=C(c3ccccc3)N(C3Nc4cc5c(cc4S3)NC(N3C(=O)/C(=C/c4cc(OC)c(OC)c(OC)c4)N=C3c3ccccc3)S5)C2=O)cc(OC)c1OC (stereo not given)	> 100 µM (inactive)	46.7 µM (inactive)	74.3 µM (inactive)	82.6 µM (inactive)	56.2 µM (inactive)	–	–	–	–
COc1cc2cc(C(=O)N3CC(CCl)c4ccc(NO)cc43)[nH]c2c(OC)c1OC (stereo not given)	0.296 µM (active)	0.0391 µM (active)	0.249 µM (active)	0.0914 µM (active)	0.436 µM (active)	–	–	–	–
